In PMC5046141, “Discovery of Isoquinolinoquinazolinones as a Novel Class of Potent PPARγ Antagonists with Anti-adipogenic Effects” (Scientific Reports, 2016):

Key:
3T3-L1 preadipocytes = assay: Oil Red O staining assay of adipocyte differentiation; format: cell-based, mouse; conditions: for inhibition at 25 µM: Mus musculus, 3T3-L1, relative absorbance from Oil Red O staining at 25 μM, read-out: Inhibitory activity (%) on adipocyte differentiation
Protocol: The GW9662-mediated inhibition of PPARγ was confirmed using an Oil Red O staining assay to measure adipocyte differentiation. To investigate whether the novel compounds could inhibit adipocyte differentiation, 3T3-L1 preadipocytes were incubated with differentiation medium (MDI; insulin, dexamethasone, and isobutyl methyl xanthine) in the presence of increasing concentrations of isoquinolinoquinazolinones. Adipogenesis was analyzed using Oil Red O staining after treatment with the compounds.
The mouse preadipocyte cell line 3T3-L1 was maintained at 37 °C in humidified air with 5% CO2. 3T3-L1 cells were cultured in Dulbecco’s modified Eagle medium (DMEM; Life Technologies) supplemented with 10% bovine serum (BS; Gibco Invitrogen, Carlsbad, California, USA) as growth medium. For adipocyte differentiation, cells were cultured for 2 days to full confluence in a 24-well plate and the growth medium was then replaced (day 0) with DMEM supplemented with 10% fetal bovine serum (FBS, Gibco Invitrogen, Carlsbad, California, USA), 5 μg/mL insulin (Sigma, St. Louis, Missouri, USA), 0.5 mM 3-isobutyl-1-methylxanthine (Sigma), and 1 μM dexamethasone (Sigma). After 48 h, the differentiation medium was replaced (day 2) with DMEM + 10% FBS containing 5 μg/mL insulin, and the cells were allowed to accumulate lipid droplets until experimental use.
The accumulation of lipids signifying the formation of adipocytes was observed by staining the differentiated cells with Oil Red O. Following differentiation, cells were washed twice with phosphate-buffered saline (PBS), fixed with 10% formalin for 60 min. Oil Red O stock solution (0.5%) was prepared in isopropanol and filtered in cellulose nitrate filters. Cells were stained with Oil Red O diluted 6:4 in water for 1 h at room temperature. Excess Oil Red O dye was washed off twice with distilled water and then dried. The stained lipid droplets within cells were visualized using an optical microscope and photographed with a digital camera at 100× magnification.

PPARγ2 = biological target: T1, PPARγ2 (Mus musculus, UniProt P37238); assay: PPRE-Luc luciferase reporter assay of PPARγ2-induced transcriptional activity in 3T3-L1 cells; format: cell-based
T1 construct: expressed in transfected cells; host or cells: 3T3-L1 (mouse preadipocytes), pCS4 CMV vector
T1 sequence (P37238 1-505): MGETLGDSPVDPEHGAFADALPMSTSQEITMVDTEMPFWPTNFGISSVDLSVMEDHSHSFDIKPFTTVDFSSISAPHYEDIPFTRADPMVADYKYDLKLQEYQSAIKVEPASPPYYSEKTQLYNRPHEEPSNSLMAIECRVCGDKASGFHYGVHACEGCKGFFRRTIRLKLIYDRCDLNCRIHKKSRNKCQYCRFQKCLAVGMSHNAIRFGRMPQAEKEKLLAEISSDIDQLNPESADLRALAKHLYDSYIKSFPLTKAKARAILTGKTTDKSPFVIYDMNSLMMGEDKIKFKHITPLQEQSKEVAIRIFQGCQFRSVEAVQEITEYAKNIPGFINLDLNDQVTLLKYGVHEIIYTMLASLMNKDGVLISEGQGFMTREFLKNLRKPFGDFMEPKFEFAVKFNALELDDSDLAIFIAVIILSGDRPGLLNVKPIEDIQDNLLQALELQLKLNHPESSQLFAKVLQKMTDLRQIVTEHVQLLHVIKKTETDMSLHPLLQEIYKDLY
Protocol: To analyze whether isoquinolinoquinazolinones inhibit the transactivation of PPARγ, 3T3-L1 cells were cotransfected with full-length PPARγ2 expression vector with a peroxisome proliferator response element (PPRE)-driven luciferase reporter gene (PPRE-Luc) that has been reported to respond to PPARγ[23][24]. […] Titration curves were generated using Graph Pad Prism®, and the IC50 value of each compound with respect to PPARγ2-induced transcriptional activity was determined.
The transcription activity was determined in 3T3-L1 cells transiently co-transfected with PPRE-driven luciferase reporter gene (PPRE-Luc) and PPARγ2 expression vector. […] After 24 h of transfection, the cells were cultured with indicated combination for 12 h. Luciferase activity was measured after 36 h.
For plasmids expressing PPARγ2, full length PPARγ2 (mouse, 1518 bp: NCBI Reference Sequence: NP_035276.2) was subcloned into CMV promoter-derived mammalian expression vector (pCS4). Plasmids for C285G, R288G mutant PPARγ2 were generated by PCR-based site-directed mutagenesis and also subcloned into CMV promoter-derived mammalian expression vector (pCS4).
3T3-L1 cells were transfected for indicated combinations of expression plasmids along with a luciferase reporter plasmid (PPRE-Luc). PPRE-Luc contains the consensus PPAR responsive element (PPRE). pCMV-β-gal was co-transfected for normalization of transfection efficiency. 24 h after transfection, cells were treated with indicated compounds for 12 h. Luciferase activities were measured using a luciferase reporter assay kit (Promega, Madison, WI, USA). Experiments were performed in triplicate and repeated at least three times.

Molecule | inhibition at 25 µM (3T3-L1 preadipocytes) [%] | melting point [°C] | also measured
6,8-Dihydro-5H-isoquinolino[2,3-c]quinazoline [Compound 9] | – | – | Inhibitory activity (%) on adipocyte differentiation (3T3-L1 preadipocytes; relative absorbance from Oil Red O staining at 25 μM): 62.5%
COc1ccc2cc3[n+](cc2c1OC)CCc1cc2c(cc1-3)OCO2 [Berberine] | 71.4 | – | inhibition of PPARγ2 transfection (transcriptional activity), with rosiglitazone stimulation (PPARγ2; 5 μM, with rosiglitazone): 40%; inhibition of PPARγ2 transfection (transcriptional activity), compound alone (PPARγ2; 5 μM, without rosiglitazone): 33%; IC50 (PPARγ2; 3T3-L1 cotransfected with PPARγ2 and PPRE-Luc, read-out: IC50 with respect to PPARγ2-induced transcriptional activity): 6.63 µM
O=c1c2ccccc2cc2n1CNc1ccccc1-2 [Compound 8a, 5H-Isoquinolino[2,3-c]quinazolin-8(6H)-one] | 53 | 204.3 to 206.3 | –
Cc1cccc2c(=O)n3c(cc12)-c1ccccc1NC3 [Compound 8b] | 49 | 226.5 to 228.1 | –
Cc1cccc2c(=O)n3c(cc12)-c1cc(Cl)ccc1NC3 [Compound 8c] | 30.9 | 240.5 to 242.1 | –
Cc1ccc2c(=O)n3c(cc2c1)-c1ccccc1NC3 [Compound 8d] | 53.9 | 119.1 to 120.4 | –
Cc1ccc2c(=O)n3c(cc2c1)-c1ccc(Cl)cc1NC3 [Compound 8e] | 63.3 | 210 to 211.5 | –
Cc1ccc2cc3n(c(=O)c2c1)CNc1ccccc1-3 [Compound 8f] | 28.6 | 213.2 to 214.5 | –
Cc1ccc2cc3n(c(=O)c2c1)CNc1ccc(Cl)cc1-3 [Compound 8g] | 42.4 | 202.6 to 205.1 | –
Cc1cc2cc3n(c(=O)c2cc1C)CNc1ccccc1-3 [Compound 8h] | 41.6 | 212.7 to 214.2 | –
Cc1cc2cc3n(c(=O)c2cc1C)CNc1ccc(Cl)cc1-3 [Compound 8i] | 49.8 | 268.7 to 270.6 | –
Cc1cc2cc3n(c(=O)c2cc1C)CNc1cc(Cl)ccc1-3 [Compound 8j] | 53 | 235.1 to 236.4 | –
COc1ccc2c(=O)n3c(cc2c1)-c1ccccc1NC3 [Compound 8k] | 56.1 | 145.4 to 148 | –
COc1ccc2c(=O)n3c(cc2c1)-c1ccc(Cl)cc1NC3 [Compound 8l] | 39.1 | 213.6 to 215.1 | –
COc1ccc2c(=O)n3c(cc2c1)-c1cc(Cl)ccc1NC3 [Compound 8m] | 28.1 | 203.9 to 205.2 | –
Cc1cccc2c(=O)n3c(cc12)-c1ccccc1OC3 [Compound 10a] | 23.6 | – | –
Cc1ccc2c(=O)n3c(cc2c1)-c1ccccc1OC3 [Compound 10b] | 25.7 | – | –
Cc1cc2cc3n(c(=O)c2cc1C)COc1ccccc1-3 [Compound 10c] | 60.4 | – | –
COc1ccc2c(=O)n3c(cc2c1OC)-c1ccccc1OC3 [Compound 10d] | 62.5 | – | –
Cc1cccc2c(=O)n3c(cc12)-c1cc2c(cc1OC3)OCO2 [Compound 10e] | 44.8 | – | –
Cc1ccc2c(=O)n3c(cc2c1)-c1cc2c(cc1OC3)OCO2 [Compound 10f] | 30.5 | – | –
Cc1ccc2cc3n(c(=O)c2c1)COc1cc2c(cc1-3)OCO2 [Compound 10g] | 40.9 | – | –
Cc1cc2cc3n(c(=O)c2cc1C)COc1cc2c(cc1-3)OCO2 [Compound 10h] | 38.8 | – | –
CN(CCOc1ccc(CC2SC(=O)NC2=O)cc1)c1ccccn1 (stereo not shown) [Rosiglitazone] | – | – | increase of luciferase expression (PPARγ2; rosiglitazone treatment, PPRE-Luc): up to 3 fold
